{"source": "ChEMBL document CHEMBL5303766", "about": "“Data for DCP probe FHT-2344” (2022)", "key": {"[1]": {"target": "Alpha-1D adrenergic receptor (Homo sapiens) (UniProt P25100)", "sequence (P25100 whole entry)": "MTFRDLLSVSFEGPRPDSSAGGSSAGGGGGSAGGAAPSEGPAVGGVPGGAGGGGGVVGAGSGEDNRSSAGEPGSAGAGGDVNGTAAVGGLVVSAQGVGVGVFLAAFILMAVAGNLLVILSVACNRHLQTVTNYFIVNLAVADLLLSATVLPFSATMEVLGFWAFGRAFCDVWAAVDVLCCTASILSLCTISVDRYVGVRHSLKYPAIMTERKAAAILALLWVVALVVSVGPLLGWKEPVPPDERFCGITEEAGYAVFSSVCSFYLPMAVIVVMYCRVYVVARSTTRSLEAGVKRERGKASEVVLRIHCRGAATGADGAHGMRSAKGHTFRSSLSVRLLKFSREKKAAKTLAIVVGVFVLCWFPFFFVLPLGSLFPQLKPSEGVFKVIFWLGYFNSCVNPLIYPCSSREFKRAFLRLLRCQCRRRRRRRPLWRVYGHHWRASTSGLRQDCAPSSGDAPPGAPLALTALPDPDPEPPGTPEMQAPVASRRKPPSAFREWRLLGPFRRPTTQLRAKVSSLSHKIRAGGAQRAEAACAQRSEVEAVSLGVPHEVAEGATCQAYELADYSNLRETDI", "conditions": "Compound concentration 10.0 uM"}, "[2]": {"target": "Ephrin type-A receptor 4 (Homo sapiens) (UniProt P54764)", "sequence (P54764 whole entry)": "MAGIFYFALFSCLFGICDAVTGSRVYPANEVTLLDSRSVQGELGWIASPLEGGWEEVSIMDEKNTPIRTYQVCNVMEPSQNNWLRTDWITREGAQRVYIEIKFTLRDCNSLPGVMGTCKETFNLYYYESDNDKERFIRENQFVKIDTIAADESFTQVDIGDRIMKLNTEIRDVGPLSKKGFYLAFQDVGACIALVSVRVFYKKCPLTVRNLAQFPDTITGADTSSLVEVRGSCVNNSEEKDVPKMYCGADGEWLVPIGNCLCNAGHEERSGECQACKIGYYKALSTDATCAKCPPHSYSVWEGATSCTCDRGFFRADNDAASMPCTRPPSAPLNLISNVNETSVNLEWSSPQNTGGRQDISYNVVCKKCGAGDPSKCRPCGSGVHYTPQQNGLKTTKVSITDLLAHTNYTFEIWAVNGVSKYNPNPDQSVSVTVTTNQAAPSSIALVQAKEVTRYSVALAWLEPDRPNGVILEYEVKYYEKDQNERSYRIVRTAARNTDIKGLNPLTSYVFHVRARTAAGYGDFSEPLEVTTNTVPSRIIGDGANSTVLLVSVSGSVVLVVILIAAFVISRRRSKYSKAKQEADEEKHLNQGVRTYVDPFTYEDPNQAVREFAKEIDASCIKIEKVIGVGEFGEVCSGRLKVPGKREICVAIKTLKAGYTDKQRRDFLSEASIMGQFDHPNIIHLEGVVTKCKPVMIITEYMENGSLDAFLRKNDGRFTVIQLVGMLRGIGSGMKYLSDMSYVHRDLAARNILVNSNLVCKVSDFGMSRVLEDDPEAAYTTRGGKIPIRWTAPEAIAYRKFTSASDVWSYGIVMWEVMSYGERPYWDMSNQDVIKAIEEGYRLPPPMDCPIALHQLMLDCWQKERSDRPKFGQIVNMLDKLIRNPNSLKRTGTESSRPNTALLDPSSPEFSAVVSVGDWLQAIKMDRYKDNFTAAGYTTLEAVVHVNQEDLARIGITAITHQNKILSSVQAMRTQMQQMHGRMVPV", "assay": "EPHA4 SGC Tm panel (DSF)", "conditions": "for ΔTm: Compound concentration 10.0 uM"}, "[3]": {"target": "Sodium-dependent dopamine transporter (Homo sapiens, UniProt Q01959)", "sequence (Q01959 whole entry)": "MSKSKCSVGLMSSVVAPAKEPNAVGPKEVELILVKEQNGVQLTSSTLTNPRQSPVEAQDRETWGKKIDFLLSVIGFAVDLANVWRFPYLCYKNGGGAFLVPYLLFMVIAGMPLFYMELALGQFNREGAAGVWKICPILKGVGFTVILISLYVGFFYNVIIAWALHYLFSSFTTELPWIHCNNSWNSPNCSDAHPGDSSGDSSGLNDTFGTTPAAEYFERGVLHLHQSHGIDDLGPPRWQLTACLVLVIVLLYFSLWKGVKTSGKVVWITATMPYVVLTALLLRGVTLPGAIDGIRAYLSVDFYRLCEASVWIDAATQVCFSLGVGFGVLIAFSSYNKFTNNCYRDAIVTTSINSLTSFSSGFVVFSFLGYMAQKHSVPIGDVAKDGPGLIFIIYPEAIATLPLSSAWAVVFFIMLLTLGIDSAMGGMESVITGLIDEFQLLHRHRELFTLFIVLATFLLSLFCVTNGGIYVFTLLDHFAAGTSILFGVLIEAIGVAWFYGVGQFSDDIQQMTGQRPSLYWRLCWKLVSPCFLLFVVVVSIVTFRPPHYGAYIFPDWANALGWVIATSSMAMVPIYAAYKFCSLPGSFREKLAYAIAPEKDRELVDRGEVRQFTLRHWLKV", "assay": "GPCRScan assay: inhibition of DAT", "design": "radioligand conc. used [nm] 3.6 – 16.0, parental cells stable HEK"}, "[4]": {"target": "T1, Serine/threonine-protein kinase haspin (Homo sapiens) (UniProt Q8TF76)", "T1 sequence (whole entry)": "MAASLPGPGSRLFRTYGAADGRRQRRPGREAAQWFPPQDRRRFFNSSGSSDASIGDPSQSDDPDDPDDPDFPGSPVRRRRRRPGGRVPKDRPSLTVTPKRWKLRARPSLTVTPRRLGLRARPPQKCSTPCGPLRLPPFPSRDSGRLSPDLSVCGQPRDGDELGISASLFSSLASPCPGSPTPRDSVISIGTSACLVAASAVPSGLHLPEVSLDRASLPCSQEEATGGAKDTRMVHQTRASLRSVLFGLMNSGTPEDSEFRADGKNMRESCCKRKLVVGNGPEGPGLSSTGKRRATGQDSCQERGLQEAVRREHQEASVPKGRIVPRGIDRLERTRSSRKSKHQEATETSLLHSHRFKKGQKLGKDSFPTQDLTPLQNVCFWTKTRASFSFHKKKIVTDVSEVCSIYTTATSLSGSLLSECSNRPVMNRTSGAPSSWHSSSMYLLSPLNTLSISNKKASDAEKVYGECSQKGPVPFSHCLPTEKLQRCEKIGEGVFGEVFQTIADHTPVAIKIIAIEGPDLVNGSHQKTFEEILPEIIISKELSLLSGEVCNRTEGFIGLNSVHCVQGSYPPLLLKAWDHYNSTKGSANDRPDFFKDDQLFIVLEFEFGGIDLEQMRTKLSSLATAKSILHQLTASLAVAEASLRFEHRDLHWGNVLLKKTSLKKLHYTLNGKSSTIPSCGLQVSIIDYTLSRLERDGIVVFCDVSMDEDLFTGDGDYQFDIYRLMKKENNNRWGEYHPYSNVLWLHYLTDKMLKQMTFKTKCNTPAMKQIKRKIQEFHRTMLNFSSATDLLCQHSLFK", "assay": "GSG2 SGC Tm panel (DSF)", "conditions": "for ΔTm: Compound concentration 10.0 uM"}, "[5]": {"target": "Serine/threonine-protein kinase B-raf (Homo sapiens) (UniProt P15056)", "sequence (P15056 whole entry)": "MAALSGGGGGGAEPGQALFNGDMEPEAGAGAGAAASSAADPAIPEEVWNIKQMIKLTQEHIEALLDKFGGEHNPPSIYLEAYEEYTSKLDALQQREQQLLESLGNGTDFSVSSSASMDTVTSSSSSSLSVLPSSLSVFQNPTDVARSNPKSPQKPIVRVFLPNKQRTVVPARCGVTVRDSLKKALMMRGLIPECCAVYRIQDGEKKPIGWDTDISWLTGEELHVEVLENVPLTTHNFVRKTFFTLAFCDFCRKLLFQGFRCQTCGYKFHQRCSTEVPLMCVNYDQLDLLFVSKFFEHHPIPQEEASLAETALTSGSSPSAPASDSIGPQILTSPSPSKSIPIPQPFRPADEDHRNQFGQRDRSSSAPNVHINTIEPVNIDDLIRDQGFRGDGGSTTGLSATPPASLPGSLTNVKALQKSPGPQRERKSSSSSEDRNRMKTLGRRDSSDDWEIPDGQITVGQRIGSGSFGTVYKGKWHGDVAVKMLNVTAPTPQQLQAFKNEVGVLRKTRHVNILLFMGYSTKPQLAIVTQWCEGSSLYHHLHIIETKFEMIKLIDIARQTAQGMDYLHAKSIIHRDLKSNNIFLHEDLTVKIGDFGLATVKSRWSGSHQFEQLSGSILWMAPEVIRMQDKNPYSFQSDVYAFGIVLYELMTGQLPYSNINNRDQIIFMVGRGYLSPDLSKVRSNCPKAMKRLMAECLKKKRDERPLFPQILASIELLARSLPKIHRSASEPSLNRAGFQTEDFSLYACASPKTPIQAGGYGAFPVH", "assay": "BRAF SGC Tm panel (DSF)", "conditions": "for ΔTm: Compound concentration 10.0 uM"}, "[6]": {"target": "Sodium-dependent noradrenaline transporter (Homo sapiens, UniProt P23975)", "conditions": "Compound concentration 10.0 uM"}, "[7]": {"target": "Calcium/calmodulin-dependent protein kinase type 1D (Homo sapiens) (UniProt Q8IU85)", "sequence (Q8IU85 whole entry, looked up)": "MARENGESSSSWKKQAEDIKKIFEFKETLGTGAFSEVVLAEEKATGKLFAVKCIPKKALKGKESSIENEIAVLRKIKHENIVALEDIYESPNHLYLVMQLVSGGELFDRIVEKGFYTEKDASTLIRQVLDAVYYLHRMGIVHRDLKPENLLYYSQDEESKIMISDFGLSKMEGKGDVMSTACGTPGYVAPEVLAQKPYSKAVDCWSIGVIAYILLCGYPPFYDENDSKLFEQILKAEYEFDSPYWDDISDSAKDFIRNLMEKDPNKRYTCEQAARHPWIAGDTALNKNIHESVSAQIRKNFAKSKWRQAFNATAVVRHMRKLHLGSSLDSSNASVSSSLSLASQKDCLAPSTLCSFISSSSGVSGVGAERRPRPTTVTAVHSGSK", "assay": "CAMK1D SGC Tm panel (DSF)", "conditions": "for ΔTm: Compound concentration 10.0 uM"}, "[8]": {"target": "Death-associated protein kinase 1 (Homo sapiens) (UniProt P53355)", "sequence (P53355 whole entry, looked up)": "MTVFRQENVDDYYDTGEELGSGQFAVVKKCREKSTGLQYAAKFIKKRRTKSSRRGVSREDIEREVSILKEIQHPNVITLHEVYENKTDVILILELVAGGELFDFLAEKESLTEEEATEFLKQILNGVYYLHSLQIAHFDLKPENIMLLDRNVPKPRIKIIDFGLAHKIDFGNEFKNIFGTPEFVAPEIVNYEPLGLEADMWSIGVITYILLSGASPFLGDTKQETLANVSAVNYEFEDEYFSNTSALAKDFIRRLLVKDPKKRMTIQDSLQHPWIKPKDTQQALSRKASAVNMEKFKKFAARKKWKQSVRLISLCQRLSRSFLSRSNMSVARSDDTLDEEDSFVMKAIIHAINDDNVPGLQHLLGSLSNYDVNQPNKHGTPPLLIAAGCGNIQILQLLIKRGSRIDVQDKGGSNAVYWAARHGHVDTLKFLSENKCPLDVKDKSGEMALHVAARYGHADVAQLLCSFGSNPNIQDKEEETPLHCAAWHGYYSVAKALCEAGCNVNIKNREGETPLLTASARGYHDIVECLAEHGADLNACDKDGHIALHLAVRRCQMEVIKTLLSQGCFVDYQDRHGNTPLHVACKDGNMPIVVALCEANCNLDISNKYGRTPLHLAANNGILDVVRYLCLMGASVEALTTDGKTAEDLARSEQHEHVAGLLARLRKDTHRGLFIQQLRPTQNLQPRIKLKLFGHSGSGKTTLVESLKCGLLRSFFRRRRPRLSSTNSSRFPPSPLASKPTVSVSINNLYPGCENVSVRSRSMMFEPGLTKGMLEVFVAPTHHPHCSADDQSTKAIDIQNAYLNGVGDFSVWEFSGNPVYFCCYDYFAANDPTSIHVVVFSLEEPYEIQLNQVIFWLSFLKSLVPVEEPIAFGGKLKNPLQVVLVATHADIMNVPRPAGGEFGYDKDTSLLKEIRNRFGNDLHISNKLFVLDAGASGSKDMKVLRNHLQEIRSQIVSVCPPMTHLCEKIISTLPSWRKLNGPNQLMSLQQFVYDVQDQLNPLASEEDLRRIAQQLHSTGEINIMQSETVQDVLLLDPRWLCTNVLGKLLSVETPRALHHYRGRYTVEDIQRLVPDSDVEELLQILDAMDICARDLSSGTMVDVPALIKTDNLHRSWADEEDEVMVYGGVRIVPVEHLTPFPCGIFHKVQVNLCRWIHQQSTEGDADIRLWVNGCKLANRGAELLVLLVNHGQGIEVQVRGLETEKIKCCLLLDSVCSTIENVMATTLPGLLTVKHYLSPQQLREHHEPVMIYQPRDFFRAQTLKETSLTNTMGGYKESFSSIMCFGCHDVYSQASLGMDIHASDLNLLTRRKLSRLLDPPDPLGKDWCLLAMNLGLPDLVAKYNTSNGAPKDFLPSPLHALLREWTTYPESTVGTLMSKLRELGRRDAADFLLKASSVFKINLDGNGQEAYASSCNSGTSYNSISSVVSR", "assay": "DAPK1 SGC Tm panel (DSF)", "conditions": "for ΔTm: Compound concentration 10.0 uM"}, "[9]": {"target": "T2, Cyclin-G-associated kinase (Homo sapiens) (UniProt O14976)", "T2 sequence (whole entry)": "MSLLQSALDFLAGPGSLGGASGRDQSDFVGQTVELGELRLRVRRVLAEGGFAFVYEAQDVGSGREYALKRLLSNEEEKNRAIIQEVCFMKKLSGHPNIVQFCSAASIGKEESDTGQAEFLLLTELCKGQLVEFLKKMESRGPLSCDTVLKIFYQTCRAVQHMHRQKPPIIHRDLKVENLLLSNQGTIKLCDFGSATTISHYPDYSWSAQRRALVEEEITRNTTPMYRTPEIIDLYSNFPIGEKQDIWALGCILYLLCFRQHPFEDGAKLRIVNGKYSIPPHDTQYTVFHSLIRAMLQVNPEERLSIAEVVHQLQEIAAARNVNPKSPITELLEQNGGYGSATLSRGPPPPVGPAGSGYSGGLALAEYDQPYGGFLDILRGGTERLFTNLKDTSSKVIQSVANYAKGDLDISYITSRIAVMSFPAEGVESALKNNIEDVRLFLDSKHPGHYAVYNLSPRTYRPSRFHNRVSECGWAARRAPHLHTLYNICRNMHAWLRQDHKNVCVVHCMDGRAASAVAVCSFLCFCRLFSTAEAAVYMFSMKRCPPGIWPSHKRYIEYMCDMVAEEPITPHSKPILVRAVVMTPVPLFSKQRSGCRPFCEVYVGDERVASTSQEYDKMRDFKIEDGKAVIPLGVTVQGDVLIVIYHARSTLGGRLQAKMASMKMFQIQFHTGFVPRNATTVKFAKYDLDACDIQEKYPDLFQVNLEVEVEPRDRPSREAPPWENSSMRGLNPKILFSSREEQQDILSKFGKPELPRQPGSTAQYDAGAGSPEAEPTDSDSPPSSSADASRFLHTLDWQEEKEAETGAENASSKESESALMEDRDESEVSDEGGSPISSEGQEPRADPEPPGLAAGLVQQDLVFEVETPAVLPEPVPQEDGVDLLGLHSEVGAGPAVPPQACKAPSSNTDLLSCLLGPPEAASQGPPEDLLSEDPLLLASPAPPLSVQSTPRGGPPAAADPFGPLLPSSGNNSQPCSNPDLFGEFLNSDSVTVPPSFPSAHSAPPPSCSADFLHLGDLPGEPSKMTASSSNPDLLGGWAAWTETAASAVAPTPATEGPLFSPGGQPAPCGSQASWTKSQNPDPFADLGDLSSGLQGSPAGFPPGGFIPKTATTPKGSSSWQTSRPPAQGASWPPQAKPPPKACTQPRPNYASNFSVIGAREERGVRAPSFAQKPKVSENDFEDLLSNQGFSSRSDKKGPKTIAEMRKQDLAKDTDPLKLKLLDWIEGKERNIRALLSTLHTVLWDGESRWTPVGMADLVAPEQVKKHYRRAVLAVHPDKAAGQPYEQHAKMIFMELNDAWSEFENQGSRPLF", "assay": "GAK SGC Tm panel (DSF)", "conditions": "for ΔTm: Compound concentration 10.0 uM"}}, "data": [{"smiles": "C[C@H](NC(=O)c1cn(C2(C#N)CC2)cn1)C(=O)Nc1nc(-c2cccc(-c3ccn(C)n3)c2)cs1", "values": [{"measurement": "inhibition", "setting": "[1]", "value": 42, "unit": "%"}, {"measurement": "delta Tm Staurosporine positive control", "setting": "[2]", "value": 6.89}, {"measurement": "ΔTm", "setting": "[2]", "value": 1.22}, {"measurement": "Ki", "setting": "[3]", "value": "> 10", "unit": "µM"}, {"measurement": "pKi", "setting": "[3]", "value": "< 5"}, {"measurement": "delta Tm Staurosporine positive control", "setting": "[4]", "value": 7.11}, {"measurement": "ΔTm", "setting": "[4]", "value": -1.11}, {"measurement": "delta Tm Staurosporine positive control", "setting": "[5]", "value": 0.63}, {"measurement": "ΔTm", "setting": "[5]", "value": -0.0339}, {"measurement": "inhibition", "setting": "[6]", "value": 69.8, "unit": "%"}, {"measurement": "delta Tm Staurosporine positive control", "setting": "[7]", "value": 10.8}, {"measurement": "ΔTm", "setting": "[7]", "value": 0.455}, {"measurement": "delta Tm Staurosporine positive control", "setting": "[8]", "value": 9.19}, {"measurement": "ΔTm", "setting": "[8]", "value": 0.0306}, {"measurement": "delta Tm Staurosporine positive control", "setting": "[9]", "value": 8.71}, {"measurement": "ΔTm", "setting": "[9]", "value": -0.0366}]}, {"smiles": "COC[C@H](NC(=O)c1ccn(S(C)(=O)=O)c1)C(=O)Nc1nc(-c2cccc(-c3ccn(C)n3)c2)cs1", "values": [{"measurement": "inhibition", "setting": "[1]", "value": 30.4, "unit": "%"}, {"measurement": "delta Tm Staurosporine positive control", "setting": "[2]", "value": 6.89}, {"measurement": "ΔTm", "setting": "[2]", "value": 1.06}, {"measurement": "Ki", "setting": "[3]", "value": "> 10", "unit": "µM"}, {"measurement": "pKi", "setting": "[3]", "value": "< 5"}, {"measurement": "delta Tm Staurosporine positive control", "setting": "[4]", "value": 7.11}, {"measurement": "ΔTm", "setting": "[4]", "value": -0.207}, {"measurement": "delta Tm Staurosporine positive control", "setting": "[5]", "value": 0.63}, {"measurement": "ΔTm", "setting": "[5]", "value": -0.0136}, {"measurement": "inhibition", "setting": "[6]", "value": 45.5, "unit": "%"}, {"measurement": "delta Tm Staurosporine positive control", "setting": "[7]", "value": 10.8}, {"measurement": "ΔTm", "setting": "[7]", "value": 0.174}, {"measurement": "delta Tm Staurosporine positive control", "setting": "[8]", "value": 9.19}, {"measurement": "ΔTm", "setting": "[8]", "value": -0.136}, {"measurement": "delta Tm Staurosporine positive control", "setting": "[9]", "value": 8.71}, {"measurement": "ΔTm", "setting": "[9]", "value": -0.217}]}]}
